Active and inactive are the calls of the source.
What was measured:
[1] = biological target: T1, Delta-type opioid receptor (Homo sapiens, UniProt P41143); experiment: HTS Image-Based Screen for Agonists of the DOR Receptor. [Related pubchem assays (depositor defined):AID1777, AID1786, AID2133]; assay type: functional
[2] = biological target: T2, Kappa-type opioid receptor (Homo sapiens, UniProt P41145); assay type: functional
[3] = biological target: T1, Delta-type opioid receptor; experiment: HTS Image-Based Screen for Antagonists of the DOR Receptor. [Related pubchem assays (depositor defined):AID1777, AID1785, AID1786, AID2133]; assay type: functional
Mu-type opioid receptor = Mu-type opioid receptor (Homo sapiens, UniProt P35372); experiment: HTS Image-Based Screen for Agonists of the MOR Receptor. [Related pubchem assays (depositor defined):AID1777, AID1785, AID1786, AID2133]; assay type: functional;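 further: imaging of beta-arrestin GFP recruitment into spots after receptor activation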
[4] = biological target: T2, Kappa-type opioid receptor; assay type: functional; remark: listed apart in the source
[5] = biological target: T3, Replicative DNA helicase DnaB (Mycobacterium tuberculosis, UniProt P9WMR3); experiment: DnaB intein splicing inhibitors, dose response, biochemical, cell-free fluorescence (AID 449749); assay type: functional
T3 sequence (P9WMR3 whole entry): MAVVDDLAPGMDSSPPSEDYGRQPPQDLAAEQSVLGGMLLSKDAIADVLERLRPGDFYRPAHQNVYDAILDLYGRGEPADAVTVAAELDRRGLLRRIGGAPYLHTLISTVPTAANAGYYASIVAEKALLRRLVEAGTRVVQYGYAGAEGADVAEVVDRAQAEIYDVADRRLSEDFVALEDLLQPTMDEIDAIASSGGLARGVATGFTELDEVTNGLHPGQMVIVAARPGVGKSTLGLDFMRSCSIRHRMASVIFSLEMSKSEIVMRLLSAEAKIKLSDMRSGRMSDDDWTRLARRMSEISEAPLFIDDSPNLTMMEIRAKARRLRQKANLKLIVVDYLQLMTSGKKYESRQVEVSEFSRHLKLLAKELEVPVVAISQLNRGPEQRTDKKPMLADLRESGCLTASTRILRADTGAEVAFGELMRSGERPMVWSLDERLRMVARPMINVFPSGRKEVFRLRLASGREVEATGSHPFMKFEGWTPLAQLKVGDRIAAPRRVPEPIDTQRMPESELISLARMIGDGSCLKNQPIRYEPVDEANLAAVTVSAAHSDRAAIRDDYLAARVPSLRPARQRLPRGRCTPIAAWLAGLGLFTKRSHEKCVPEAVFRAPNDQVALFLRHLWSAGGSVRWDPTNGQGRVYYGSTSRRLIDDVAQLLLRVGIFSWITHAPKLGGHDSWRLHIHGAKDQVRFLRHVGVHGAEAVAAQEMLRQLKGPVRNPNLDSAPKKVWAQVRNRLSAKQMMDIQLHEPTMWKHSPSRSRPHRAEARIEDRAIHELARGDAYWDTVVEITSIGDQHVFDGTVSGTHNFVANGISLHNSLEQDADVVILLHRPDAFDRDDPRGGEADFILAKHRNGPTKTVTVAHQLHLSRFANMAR

Genome polyprotein = Genome polyprotein (dengue virus type 2, UniProt P29990); experiment: flavivirus cap methylation enzyme inhibition – biochemical, confirmation dose response, primary screen (AID 588689); assay type: functional
SUMO-activating enzyme [6] = biological target: T4, SUMO-activating enzyme (Homo sapiens, UniProt Q9UBT2); experiment: blockers of UBC9-mediated SUMO conjugation – biochemical, AlphaScreen, SUMOylation inhibitor project, confirmation (AID 2018); assay type: functional
Protein RecA = biological target: T5, Protein RecA (Mycobacterium tuberculosis, UniProt P9WHJ3); experiment: Fluorescence Cell-Free Homogeneous Dose Retest to Identify Inhibitors of RecA-Intein Splicing Activity. [Related pubchem assays (depositor defined):AID2097, AID2223, AID489010, AID492950]; assay type: functional
T5 sequence (P9WHJ3 whole entry): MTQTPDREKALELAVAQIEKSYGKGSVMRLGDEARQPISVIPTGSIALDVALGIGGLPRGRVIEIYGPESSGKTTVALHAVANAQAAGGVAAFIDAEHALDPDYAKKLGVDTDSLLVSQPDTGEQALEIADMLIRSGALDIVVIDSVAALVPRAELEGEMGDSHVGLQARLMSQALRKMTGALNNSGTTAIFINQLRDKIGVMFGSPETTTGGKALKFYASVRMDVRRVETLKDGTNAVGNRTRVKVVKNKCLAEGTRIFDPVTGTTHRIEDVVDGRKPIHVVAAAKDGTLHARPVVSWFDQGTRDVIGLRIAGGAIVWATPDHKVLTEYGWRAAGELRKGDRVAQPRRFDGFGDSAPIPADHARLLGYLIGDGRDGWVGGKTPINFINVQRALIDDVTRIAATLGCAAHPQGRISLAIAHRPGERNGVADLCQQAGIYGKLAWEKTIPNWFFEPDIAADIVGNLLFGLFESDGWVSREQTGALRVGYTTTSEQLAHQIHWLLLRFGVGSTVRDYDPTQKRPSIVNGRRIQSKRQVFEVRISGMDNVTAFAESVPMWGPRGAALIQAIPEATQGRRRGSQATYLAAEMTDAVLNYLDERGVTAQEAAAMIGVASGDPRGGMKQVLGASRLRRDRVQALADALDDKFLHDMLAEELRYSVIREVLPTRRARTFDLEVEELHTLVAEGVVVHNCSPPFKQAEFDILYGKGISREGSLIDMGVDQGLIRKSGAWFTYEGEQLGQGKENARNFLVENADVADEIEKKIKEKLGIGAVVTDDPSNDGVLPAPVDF

SUMO-activating enzyme [7] = biological target: T4, SUMO-activating enzyme; experiment: blockers of SAE1/SAE2–UBC9 SUMO transfer – biochemical, HTRF, uHTS, primary screen (AID 2006); assay type: protein-complex assay
[8] = biological target: T6, Alkaline phosphatase, tissue-nonspecific isozyme (Homo sapiens, UniProt P05186); experiment: TNAP enzyme inhibition by screening hits, dose response, selectivity assay for mouse IAP inhibitor project, biochemical, human TNAP, uHTS hits (AID 488906); assay type: functional
T6 sequence (P05186 whole entry): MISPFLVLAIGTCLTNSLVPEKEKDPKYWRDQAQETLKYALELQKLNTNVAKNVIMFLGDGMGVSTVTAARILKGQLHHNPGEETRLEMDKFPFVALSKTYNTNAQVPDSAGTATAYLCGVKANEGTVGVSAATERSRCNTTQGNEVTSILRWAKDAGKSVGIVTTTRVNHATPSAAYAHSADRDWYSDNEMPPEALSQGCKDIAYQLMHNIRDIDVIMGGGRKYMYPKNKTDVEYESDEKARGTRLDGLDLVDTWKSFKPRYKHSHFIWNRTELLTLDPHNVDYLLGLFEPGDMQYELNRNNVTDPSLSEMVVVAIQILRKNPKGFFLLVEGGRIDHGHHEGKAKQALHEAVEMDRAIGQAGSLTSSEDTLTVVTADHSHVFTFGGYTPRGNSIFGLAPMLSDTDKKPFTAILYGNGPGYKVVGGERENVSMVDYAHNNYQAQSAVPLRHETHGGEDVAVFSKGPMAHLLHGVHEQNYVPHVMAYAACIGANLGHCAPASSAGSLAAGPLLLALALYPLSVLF

[9] = biological target: T7, Intestinal-type alkaline phosphatase (Homo sapiens, UniProt P09923); experiment: inhibition of human intestinal alkaline phosphatase – biochemical, dose response (AID 488876); assay type: functional
[10] = biological target: Intestinal-type alkaline phosphatase (Mus musculus, UniProt P24822); experiment: PubChem AID 488785; assay type: functional
[11] = alpha-synuclein stem-loop luciferase translation blockers – H4 neuroglioma cells, luminescence, confirmation (AID 1988); assay type: functional, cell-based
[12] = Luminescence Cell-Based Dose Response HTS to Identify Inhibitors of 5'UTR Stem-Loop Driven Prion Protein mRNA Translation in H4 Neuroglioblastoma Cells. [Related pubchem assays: 1827 (Project Summary), 1813 (Primary HTS)]; assay type: functional
[13] = biological target: Lysine-specific demethylase 4C (Homo sapiens, UniProt Q9H3R0); experiment: inhibition of JMJD2C H3K9me3 demethylation – biochemical, DELFIA europium, cherry-picked samples, dose response (AID 488835); assay type: functional
INS1 = experiment: INS-1E survival protection against cytokine death – cell-based, luminescence, retest, dose response (AID 449756); assay type: functional; conditions: Rattus norvegicus;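 further: cell death triggered by IL-1 beta plus TNF-alpha plus IFN-gamma mixture; protective hits raise ATP signal compared with cytokine alone wells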
[14] = luciferase reporter signal suppression in cells – H4 neuroglioma cells, luminescence, dose response (AID 1990); assay type: functional, cell-based
[15] = biological target: T7, Intestinal-type alkaline phosphatase; experiment: Dose Response confirmation of uHTS hits from a small molecule inhibitors of human intestinal alkaline phosphatase via a luminescent assay. [Related pubchem assays (depositor defined):AID2544, AID2574]; assay type: functional
[16] = biological target: T7, Intestinal-type alkaline phosphatase; experiment: human intestinal alkaline phosphatase activators, dose response, biochemical, luminescence, uHTS hits (AID 463120); assay type: functional
Cannabinoid receptor 1 [17] = biological target: T8, Cannabinoid receptor 1 (Homo sapiens, UniProt P21554); experiment: SAR analysis of antagonists of the Cannabinoid Receptor 1 using an Image-Based Assay - Set 2. [Related pubchem assays (depositor defined):AID2013, AID2026]; assay type: functional
[18] = biological target: T9, G-protein coupled receptor 55 (Homo sapiens, UniProt Q9Y2T6); experiment: blockade of LPI-induced GPR55 arrestin translocation – imaging, U2OS, beta-arrestin-GFP, LPI agonist, set 2, SAR follow-up (AID 2820); assay type: functional
[19] = biological target: T9, G-protein coupled receptor 55; experiment: inhibition of LPI-stimulated GPR55 beta-arrestin translocation – imaging, U2OS, beta-arrestin-GFP, LPI agonist, primary screen (AID 2013); assay type: functional;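 further: antagonist potency measured as reduced agonist-driven arrestin aggregation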
[20] = biological target: T10, G-protein coupled receptor 35 (Homo sapiens, UniProt Q9HC97); experiment: SAR analysis of Antagonists of the GPR35 Receptor using an Image-Based Assay - Set 3. [Related pubchem assays (depositor defined):AID2013, AID2026]; assay type: functional
Cannabinoid receptor 2 [21] = biological target: T11, Cannabinoid receptor 2 (Homo sapiens, UniProt P34972); experiment: SAR analysis of agonists of the Cannabinoid Receptor 2 using an Image-Based Assay. [Related pubchem assays (depositor defined):AID2013, AID2026]; assay type: functional
[22] = biological target: T10, G-protein coupled receptor 35; experiment: SAR analysis of Agonists of the GPR35 Receptor using an Image-Based Assay - Set 2. [Related pubchem assays (depositor defined):AID2013, AID2026]; assay type: functional
Cannabinoid receptor 1 [23] = biological target: T8, Cannabinoid receptor 1; experiment: SAR analysis of agonists of the Cannabinoid Receptor 1 using an Image-Based Assay - Set 2. [Related pubchem assays (depositor defined):AID2013, AID2026]; assay type: functional
Cannabinoid receptor 2 [24] = biological target: T11, Cannabinoid receptor 2; experiment: SAR analysis of antagonists of the Cannabinoid Receptor 2 using an Image-Based Assay. [Related pubchem assays (depositor defined):AID2013, AID2026]; assay type: functional
Apelin receptor = Apelin receptor (Homo sapiens, UniProt P35414); experiment: apelin receptor antagonists, arrestin read-out – cell-based, luminescent, enzyme-fragment complementation, selectivity assay for CCR6 antagonist project, SAR follow-up (AID 588359); assay type: functional
Beta-galactosidase = Beta-galactosidase (Escherichia coli, UniProt Q8VNN2); experiment: detection-enzyme interference by beta-gal modulators – biochemical, E. coli enzyme, set 3, artefact control for CCR6 antagonist project, dose response (AID 504712); assay type: functional
Chain of Beta-galactosidase (Q8VNN2 whole entry): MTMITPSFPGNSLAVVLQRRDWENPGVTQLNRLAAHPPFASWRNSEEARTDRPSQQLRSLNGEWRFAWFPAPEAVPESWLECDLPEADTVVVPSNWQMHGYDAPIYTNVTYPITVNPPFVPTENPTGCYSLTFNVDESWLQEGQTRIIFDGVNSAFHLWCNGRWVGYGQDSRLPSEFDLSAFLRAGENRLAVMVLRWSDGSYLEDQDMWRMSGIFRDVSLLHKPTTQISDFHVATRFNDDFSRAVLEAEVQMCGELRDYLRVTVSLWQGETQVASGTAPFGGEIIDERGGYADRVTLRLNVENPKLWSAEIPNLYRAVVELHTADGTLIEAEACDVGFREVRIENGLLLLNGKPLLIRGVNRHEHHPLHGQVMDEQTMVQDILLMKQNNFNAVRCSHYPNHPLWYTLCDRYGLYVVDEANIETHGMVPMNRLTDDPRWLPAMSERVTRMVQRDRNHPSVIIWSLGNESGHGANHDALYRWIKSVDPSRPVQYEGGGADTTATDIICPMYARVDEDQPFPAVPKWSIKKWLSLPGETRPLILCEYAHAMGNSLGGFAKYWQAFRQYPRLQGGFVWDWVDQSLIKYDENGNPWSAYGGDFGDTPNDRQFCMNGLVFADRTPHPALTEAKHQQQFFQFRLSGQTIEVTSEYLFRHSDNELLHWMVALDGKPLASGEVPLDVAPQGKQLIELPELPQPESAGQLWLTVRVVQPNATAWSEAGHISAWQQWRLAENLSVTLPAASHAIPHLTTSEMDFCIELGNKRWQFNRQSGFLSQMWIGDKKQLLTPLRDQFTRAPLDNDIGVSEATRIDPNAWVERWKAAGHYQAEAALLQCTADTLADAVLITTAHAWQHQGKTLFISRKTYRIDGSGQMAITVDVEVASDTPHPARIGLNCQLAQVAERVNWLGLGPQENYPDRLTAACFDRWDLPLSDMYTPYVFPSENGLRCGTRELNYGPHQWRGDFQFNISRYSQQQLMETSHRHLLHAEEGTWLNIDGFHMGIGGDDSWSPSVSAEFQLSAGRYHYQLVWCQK

T7 sequence (P09923 whole entry): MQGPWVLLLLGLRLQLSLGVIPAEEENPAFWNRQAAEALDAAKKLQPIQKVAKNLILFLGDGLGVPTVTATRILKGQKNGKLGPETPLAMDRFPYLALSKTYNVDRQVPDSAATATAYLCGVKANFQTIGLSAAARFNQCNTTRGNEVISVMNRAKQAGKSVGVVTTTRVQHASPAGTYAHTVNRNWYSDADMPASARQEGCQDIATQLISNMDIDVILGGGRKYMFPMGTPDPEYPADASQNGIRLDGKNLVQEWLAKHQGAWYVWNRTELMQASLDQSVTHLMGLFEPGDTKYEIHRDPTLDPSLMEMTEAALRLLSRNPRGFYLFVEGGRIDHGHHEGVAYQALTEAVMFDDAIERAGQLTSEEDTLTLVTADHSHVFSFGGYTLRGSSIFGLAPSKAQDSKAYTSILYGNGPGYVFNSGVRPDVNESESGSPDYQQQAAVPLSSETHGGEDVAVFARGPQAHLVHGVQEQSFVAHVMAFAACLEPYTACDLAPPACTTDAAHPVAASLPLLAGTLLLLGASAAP
T1 sequence (P41143 whole entry): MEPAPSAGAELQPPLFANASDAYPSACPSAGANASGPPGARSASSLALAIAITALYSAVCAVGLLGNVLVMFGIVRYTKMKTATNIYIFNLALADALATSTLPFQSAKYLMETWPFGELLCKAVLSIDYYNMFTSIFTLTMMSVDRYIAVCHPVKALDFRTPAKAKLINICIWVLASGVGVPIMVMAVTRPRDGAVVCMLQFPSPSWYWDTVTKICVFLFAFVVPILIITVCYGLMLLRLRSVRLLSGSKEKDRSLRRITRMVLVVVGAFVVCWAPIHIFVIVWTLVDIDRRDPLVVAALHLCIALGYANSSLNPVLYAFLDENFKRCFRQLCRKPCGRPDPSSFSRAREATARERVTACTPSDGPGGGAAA
T10 sequence (Q9HC97 whole entry): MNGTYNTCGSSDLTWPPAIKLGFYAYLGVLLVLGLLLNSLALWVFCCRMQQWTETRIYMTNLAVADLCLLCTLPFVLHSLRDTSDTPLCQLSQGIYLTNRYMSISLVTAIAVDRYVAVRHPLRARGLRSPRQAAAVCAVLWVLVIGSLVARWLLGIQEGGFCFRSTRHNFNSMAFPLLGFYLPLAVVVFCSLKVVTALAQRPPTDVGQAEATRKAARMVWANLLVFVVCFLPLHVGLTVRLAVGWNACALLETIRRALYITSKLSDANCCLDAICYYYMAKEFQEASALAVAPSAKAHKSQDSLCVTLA
T4 sequence (Q9UBE0 whole entry): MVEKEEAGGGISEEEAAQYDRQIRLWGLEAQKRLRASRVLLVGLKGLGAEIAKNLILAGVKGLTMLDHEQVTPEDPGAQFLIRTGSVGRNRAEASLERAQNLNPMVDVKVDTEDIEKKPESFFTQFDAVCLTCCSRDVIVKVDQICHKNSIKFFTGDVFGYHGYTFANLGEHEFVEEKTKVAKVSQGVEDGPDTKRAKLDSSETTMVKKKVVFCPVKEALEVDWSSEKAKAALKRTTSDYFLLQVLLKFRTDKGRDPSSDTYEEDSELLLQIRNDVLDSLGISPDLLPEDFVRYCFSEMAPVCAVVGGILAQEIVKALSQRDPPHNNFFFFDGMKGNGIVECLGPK
T4 sequence (Q9UBT2 whole entry): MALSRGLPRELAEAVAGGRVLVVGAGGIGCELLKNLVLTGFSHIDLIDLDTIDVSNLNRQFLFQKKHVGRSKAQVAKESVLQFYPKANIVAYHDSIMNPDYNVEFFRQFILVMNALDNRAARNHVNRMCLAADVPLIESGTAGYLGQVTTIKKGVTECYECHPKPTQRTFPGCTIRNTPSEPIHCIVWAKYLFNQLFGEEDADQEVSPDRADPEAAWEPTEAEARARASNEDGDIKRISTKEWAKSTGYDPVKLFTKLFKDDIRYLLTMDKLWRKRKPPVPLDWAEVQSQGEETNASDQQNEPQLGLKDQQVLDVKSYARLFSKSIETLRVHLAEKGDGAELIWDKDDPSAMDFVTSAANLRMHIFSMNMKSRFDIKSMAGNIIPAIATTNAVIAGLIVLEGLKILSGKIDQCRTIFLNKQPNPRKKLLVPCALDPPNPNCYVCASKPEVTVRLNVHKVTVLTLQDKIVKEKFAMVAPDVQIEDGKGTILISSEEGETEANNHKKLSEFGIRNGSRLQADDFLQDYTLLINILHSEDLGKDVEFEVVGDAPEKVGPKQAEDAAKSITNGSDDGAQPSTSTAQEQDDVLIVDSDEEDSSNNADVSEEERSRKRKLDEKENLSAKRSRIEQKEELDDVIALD
T2 sequence (P41145 whole entry): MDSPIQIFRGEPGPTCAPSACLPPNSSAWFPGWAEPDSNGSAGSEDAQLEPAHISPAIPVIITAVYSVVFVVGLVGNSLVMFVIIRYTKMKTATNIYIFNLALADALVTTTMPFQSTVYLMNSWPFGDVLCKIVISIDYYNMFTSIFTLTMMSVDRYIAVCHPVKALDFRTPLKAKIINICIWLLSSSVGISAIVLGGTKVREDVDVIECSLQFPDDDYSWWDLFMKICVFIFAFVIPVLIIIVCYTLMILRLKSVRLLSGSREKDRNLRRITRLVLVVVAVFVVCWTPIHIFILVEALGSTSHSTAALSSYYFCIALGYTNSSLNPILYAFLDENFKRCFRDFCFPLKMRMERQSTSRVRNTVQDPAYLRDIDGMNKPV
T8 sequence (P21554 whole entry): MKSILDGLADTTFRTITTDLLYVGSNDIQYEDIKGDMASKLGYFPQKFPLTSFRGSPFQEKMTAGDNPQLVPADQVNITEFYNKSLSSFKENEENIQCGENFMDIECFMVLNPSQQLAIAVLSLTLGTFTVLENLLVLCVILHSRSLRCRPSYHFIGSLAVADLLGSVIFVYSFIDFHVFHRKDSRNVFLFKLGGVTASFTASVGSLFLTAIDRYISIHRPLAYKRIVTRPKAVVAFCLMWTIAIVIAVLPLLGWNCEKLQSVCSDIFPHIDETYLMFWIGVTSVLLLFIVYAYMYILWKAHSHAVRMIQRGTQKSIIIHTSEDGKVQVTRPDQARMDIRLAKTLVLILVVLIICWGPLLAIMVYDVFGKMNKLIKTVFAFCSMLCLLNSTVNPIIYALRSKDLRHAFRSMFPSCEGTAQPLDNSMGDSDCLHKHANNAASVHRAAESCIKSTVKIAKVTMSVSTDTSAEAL
T9 sequence (Q9Y2T6 whole entry): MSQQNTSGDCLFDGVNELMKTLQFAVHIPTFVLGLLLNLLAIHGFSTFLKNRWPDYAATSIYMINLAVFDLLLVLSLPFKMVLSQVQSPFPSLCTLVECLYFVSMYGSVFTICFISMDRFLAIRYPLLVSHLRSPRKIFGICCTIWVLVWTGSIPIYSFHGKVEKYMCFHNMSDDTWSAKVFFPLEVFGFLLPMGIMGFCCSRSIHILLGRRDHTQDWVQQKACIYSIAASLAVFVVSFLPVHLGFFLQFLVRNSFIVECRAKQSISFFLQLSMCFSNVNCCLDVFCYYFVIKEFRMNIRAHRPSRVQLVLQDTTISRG
T11 sequence (P34972 whole entry): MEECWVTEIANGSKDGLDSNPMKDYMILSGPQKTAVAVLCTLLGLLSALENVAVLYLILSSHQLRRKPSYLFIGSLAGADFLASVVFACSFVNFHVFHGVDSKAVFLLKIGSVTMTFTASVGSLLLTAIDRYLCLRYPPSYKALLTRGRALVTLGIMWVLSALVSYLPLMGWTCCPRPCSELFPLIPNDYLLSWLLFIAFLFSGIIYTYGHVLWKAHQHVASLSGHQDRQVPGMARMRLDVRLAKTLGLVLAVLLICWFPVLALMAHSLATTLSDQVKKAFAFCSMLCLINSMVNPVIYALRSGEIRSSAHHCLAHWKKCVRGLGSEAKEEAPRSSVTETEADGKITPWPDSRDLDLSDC

COc1ccc(C[C@@H]2CN3C(=NC[C@@H]3C)N2CCNC(=O)c2ccc(C)c(Br)c2)cc1
EC50 [1]: > 32 µM (inactive)
EC50 [2]: 0.118 µM
IC50 [3]: > 32 µM (inactive)
EC50 (Mu-type opioid receptor): > 32 µM (inactive)
EC50 [4]: < 0.5 µM

COc1cc(/C=C2\C(=O)N(c3ccc(S(N)(=O)=O)cc3)N=C2C)ccc1OC(=O)c1ccco1
AC50 [5]: > 380 µM (inactive)
IC50 (Genome polyprotein): 73.2 µM (active)
IC50 (SUMO-activating enzyme [6]): 6.36 µM (active)
EC50 (Protein RecA): 23.8 µM (active)
IC50 (SUMO-activating enzyme [7]): > 100 µM (inactive)

CCOC(=O)c1ccc(N2CCN(c3ccccc3F)CC2)c(NC(=O)Nc2ccccc2)c1
IC50 [8]: > 100 µM (inactive)
IC50 [9]: > 100 µM (inactive)
IC50 [10]: 8.66 µM (active)

O=C(CNC(=O)c1ccccc1O)N/N=C/c1cc(Br)ccc1OC(=O)/C=C/c1ccco1
EC50 [11]: 9.47 µM (active)
EC50 [12]: 7.28 µM (active)
AC50 [13]: 10.8 µM (active)
AC50 (INS1): 3.13 µM (active)
EC50 [14]: 10.7 µM (active)

CN1CCN(CCNC(=O)Cn2c(=O)c3cccn3c3ccc(F)cc32)CC1
IC50 [15]: > 100 µM (inactive)
EC50 [16]: > 100 µM (inactive)

Cc1ccc2c(c1)C(c1ccc(O)cc1)(c1ccc(O)cc1)C(=O)N2C
IC50 (Cannabinoid receptor 1 [17]): 5.74 µM (active)
IC50 [18]: 1 µM (active)
IC50 [19]: 1.57 µM (active)
IC50 [20]: > 32 µM (inactive)
EC50 (Cannabinoid receptor 2 [21]): > 32 µM (inactive)
EC50 [22]: > 32 µM (inactive)
EC50 (Cannabinoid receptor 1 [23]): > 32 µM (inactive)
IC50 (Cannabinoid receptor 2 [24]): > 32 µM (inactive)

CC(C)(C)c1ccc2c(c1)OC(C(=O)N/N=C\c1ccccn1)CO2 (stereo not given)
IC50 (Apelin receptor): 28.8 µM (inactive)
IC50 (Beta-galactosidase): > 66.6 µM (inactive)

— ChEMBL document CHEMBL1201862, “PubChem BioAssay data set” (2004)
